This is an account of results in patent publication US20060252807A1, “Novel ortho-terphenyl inhibitors of p38 kinase and methods of treating inflammatory disorders” (Kalypsys, Inc., priority 2005, published 2006).

The target of test [1] is T1, active p38 alpha enzyme (Upstate Biotechnology) (Homo sapiens, UniProt Q16539).
T1 construct: purchased Upstate Biotechnology
Description: p38α biochemical assay (ATP turnover, luminescent detection, Cambrex PKlight). Particulars: Table 1 Biological Activity. The gist of the method: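 Active human p38α was incubated with full-length MapkapK2 protein as substrate and 1.4 uM ATP (final) for 2 hours at 30C. Buffer: 200 mM Tris, 100 mM MgCl2, 1.5 mM EGTA, 4 mM CaCl2, 20 mM MOPS, 1 mM EDTA, 1% glycerol, 0.1% β-mercaptoethanol, 1 mg/ml BSA. Total ATP turnover read by luminescence.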

Test [2] deals with TNF-α production. Description: TNF-α production by LPS-stimulated rats (ELISA). Conditions: rat, −1 hr before LPS; for inhibition at 30 mg/kg / inhibition at 10 mg/kg: read-out: LPS Induced TNF alpha (−1 hr) In Vivo (+) = >15% Inhibition (−) = ≦15% Inhibition; for ED50: oral dosing, read-out: LPS Induced TNF alpha (−1 hr) In Vivo (+) = ED50 ≦ 10 (−) = ED50 > 10. It counts as in vivo, Male Lewis rats. As to the method:
TNF-α Production by LPS-Stimulated Mice
Male Lewis rats (180-200 g) were injected intraperitoneally with lipopolysaccharide (LPS) (50 μg/kg of E. coli strain 0111:B4, Sigma) suspended in sterile saline. Ninety minutes later, mice were sedated by CO2:O2 inhalation and a blood sample was obtained. Serum was separated and analyzed for TNF-α concentrations by commercial ELISA assay per the manufacturer's instructions (R&D Bioscience). Test compounds were administered orally at various times before LPS injection. The compounds were dosed either as suspensions or as solutions in various vehicles or solubilizing agents.
Compounds were dosed 0.5 to 3 hours before LPS stimulation. Rats were anaesthetized with Isofluor and injected i.v. with 0.3 mg/kg of LPS* in a volume of 0.3 ml sterile saline. Ninety minutes after the LPS injection, blood samples were collected into heparin tubes for preparation of plasma samples. Repression of TNFα production is assessed by commercial ELISA and reported below in Table 2.
(In general: ELISA stands for enzyme-linked immunosorbent assay.)

T1 sequence (Q16539 whole entry): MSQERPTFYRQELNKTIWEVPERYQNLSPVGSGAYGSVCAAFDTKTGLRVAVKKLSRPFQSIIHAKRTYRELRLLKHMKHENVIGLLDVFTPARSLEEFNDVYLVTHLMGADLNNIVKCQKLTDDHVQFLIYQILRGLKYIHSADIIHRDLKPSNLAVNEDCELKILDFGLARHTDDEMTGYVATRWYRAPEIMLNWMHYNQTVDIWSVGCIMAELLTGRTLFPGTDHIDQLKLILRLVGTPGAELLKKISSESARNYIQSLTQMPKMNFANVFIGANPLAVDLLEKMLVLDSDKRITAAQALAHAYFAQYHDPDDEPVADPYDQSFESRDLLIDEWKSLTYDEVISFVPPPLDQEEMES

For the compound `Cc1onc(-c2ccccc2)c1-c1ccn(C(=O)NC(C)C)n1` [Example 1, 3-(5-Methyl-3-phenyl-isoxazol-4-yl)pyrazole-1-carboxylic acid isopropylamide], the half-inhibitory concentration (IC50) (commonly the concentration at which inhibition is half-maximal) in test [1] (p38α biochemical assay) is ≤ 1000 nM. Moreover, the inhibition (commonly the change of the read-out against control, counted positive when it falls) at 30 mg/kg in test [2] was > 15%.

Turning to `C#CCNC(=O)c1csc(-c2c(-c3ccc(F)cc3)n[nH]c2C2CCN(C(=O)CO)CC2)n1` [Example 66, 2-{3-(4-Fluoro-phenyl)-5-|1-(2-hydroxy-acetyl)-piperidin-4-yl|-1H-pyrazol-4-yl}-thiazole-4-carboxylic acid prop-2-ynylamide], the IC50 in test [1] (p38α biochemical assay) was ≤ 1000 nM. For the same compound, the inhibition at 10 mg/kg in test [2] is ≤ 15%.

Consider `CCNC(=O)c1csc(-c2c(-c3ccc(F)cc3)n[nH]c2C2CCN(C(=O)CO)CC2)n1` [Example 64, 2-{3-(4-Fluoro-phenyl)-5-|1-(2-hydroxy-acetyl)-piperidin-4-yl|-1H-pyrazol-4-yl}-thiazole-4-carboxylic acid ethylamide], for which the IC50 in test [1] (p38α biochemical assay) is ≤ 1000 nM. The inhibition at 10 mg/kg in test [2] was ≤ 15%.

For the compound `Cc1[nH]nc(-c2ccc(F)cc2)c1-c1nc(C(=O)NCC2CC2)cs1` [Example 73, 2-|3-(4-Fluoro-phenyl)-5-methyl-1H-pyrazol-4-yl|-thiazole-4-carboxylic acid cyclopropylmethyl-amide], the IC50 in test [1] (p38α biochemical assay) was ≤ 1000 nM. Besides, the inhibition at 10 mg/kg in test [2] was ≤ 15%.

Turning to `CC(C)NC(=O)c1csc(-c2c(-c3ccc(F)cc3)ncn2C2CCN(C(=O)CO)CC2)n1` [Example 93, 2-{5-(4-Fluoro-phenyl)-3-|1-(2-hydroxy-acetyl)-piperidin-4-yl|-3H-imidazol-4-yl}-thiazole-4-carboxylic acid isopropylamide], in test [1] (p38α biochemical assay), the IC50 was ≤ 1000 nM. For the same compound, the inhibition at 10 mg/kg in test [2] was > 15%.

For the compound `O=C(NCc1cccnc1)c1csc(-c2c(-c3ccc(F)cc3)n[nH]c2C2CCN(C(=O)CO)CC2)n1` [Example 68, 2-{3-(4-Fluoro-phenyl)-5-|1-(2-hydroxy-acetyl)-piperidin-4-yl|-1H-pyrazol-4-yl}thiazole-4-carboxylic acid (pyridin-3-ylmethyl)-amide], in test [1] (p38α biochemical assay), the IC50 is ≤ 1000 nM. Besides, in test [2], the inhibition at 10 mg/kg is > 15%.

With `CC(C)NC(=O)c1csc(-c2c(-c3ccc(F)cc3)n[nH]c2C2CCN(C(=O)CO)CC2)n1` [Example 62, 2-{3-(4-Fluoro-phenyl)-5-|1-(2-hydroxy-acetyl)-piperidin-4-yl|-1H-pyrazol-4-yl}thiazole-4-carboxylic acid isopropylamide], in test [1] (p38α biochemical assay), the half-maximal inhibitory concentration (IC50) is ≤ 1000 nM. In test [2], the inhibition at 10 mg/kg is > 15%.

For the compound `CC(C)NC(=O)c1csc(-c2c(-c3ccc(F)cc3)n[nH]c2C2CCNCC2)n1` [Example 811], the IC50 in test [1] (p38α kinase) was ≤ 1000 nM. Moreover, the inhibition at 10 mg/kg in test [2] was > 15%.

`O=C(NCc1cccnc1)c1csc(-c2c(-c3ccc(F)cc3)n[nH]c2C2CCNCC2)n1` [Example 2028]: in test [1] (p38α kinase), the IC50 is ≤ 1000 nM. Further, the inhibition at 10 mg/kg in test [2] is ≤ 15%.

For the compound `Cc1onc(-c2ccc(F)cc2)c1-c1ccn(C(=O)NC(C)C)n1` [Example 18, 3-|3-(4-Fluoro-phenyl)-5-methyl-isoxazol-4-yl|-pyrazole-1-carboxylic acid isopropylamide], the IC50 in test [1] (p38α biochemical assay) is ≤ 1000 nM. For the same compound, the inhibition at 30 mg/kg in test [2] was > 15%.

In the case of `CC(C)NC(=O)c1csc(-c2oc(CN3CCNCC3)nc2-c2ccc(F)cc2)n1` [Example 44, 2-|4-(4-Fluoro-phenyl)-2-piperazin-1-ylmethyl-oxazol-5-yl|-thiazole-4-carboxylic acid isopropylamide], in test [1] (p38α biochemical assay), the IC50 is ≤ 1000 nM. The inhibition at 10 mg/kg in test [2] was ≤ 15%.

Consider `CC(C)NC(=O)n1ccc(-c2c(-c3ccc(F)cc3)noc2CN2CCOCC2)n1` [Example 26, 3-|3-(4-Fluoro-phenyl)-5-morpholin-4-ylmethyl-isoxazol-4-yl|-pyrazole-1-carboxylic acid isopropylamide], for which the IC50 in test [1] (p38α biochemical assay) is ≤ 1000 nM. In addition, in test [2], the inhibition at 10 mg/kg was > 15% and the ED50 (as a rule, the dose that gives a 50% effect, or the effect in half of the subjects) was ≤ 10 mg/kg.

For the compound `CC(C)NC(=O)c1csc(-c2c(-c3ccc(F)cc3)ncn2C2CCNCC2)n1` [Example 91, 2-|5-(4-Fluoro-phenyl)-3-piperidin-4-yl-3H-imidazol-4-yl|-thiazole-4-carboxylic acid isopropylamide], in test [1] (p38α biochemical assay), the IC50 was ≤ 1000 nM. In addition, in test [2], the inhibition at 10 mg/kg is > 15%.

Take `CC(C)NC(=O)c1csc(-c2oc(CN3CCOCC3)nc2-c2ccc(F)cc2)n1` [Example 41, 2-|4-(4-Fluoro-phenyl)-2-morpholin-4-ylmethyl-oxazol-5-yl|-thiazole-4-carboxylic acid isopropylamide]: the IC50 in test [1] (p38α biochemical assay) is ≤ 1000 nM. The inhibition at 10 mg/kg in test [2] was > 15%.

Take `Cc1onc(-c2ccc(F)cc2)c1-c1nc(C(=O)NC(C)C)cs1` [Example 27, 2-|3-(4-Fluoro-phenyl)-5-methyl-isoxazol-4-yl|-thiazole-4-carboxylic acid isopropylamide]: in test [1] (p38α biochemical assay), the IC50 was ≤ 1000 nM. Besides, in test [2], the inhibition at 10 mg/kg is > 15% and the median effective dose (ED50) was > 10 mg/kg.

As for `C#CCNC(=O)c1csc(-c2c(-c3ccc(F)cc3)n[nH]c2C)n1` [Example 78, 2-|3-(4-Fluoro-phenyl)-5-methyl-1H-pyrazol-4-yl|-thiazole-4-carboxylic acid prop-2-ynylamide], in test [1] (p38α biochemical assay), the IC50 was ≤ 1000 nM. In addition, in test [2], the inhibition at 10 mg/kg was ≤ 15%.

As to `Cc1nc(-c2ccc(F)cc2)c(-c2nc(C(=O)NC(C)C)cs2)s1` [Example 46, 4′-(4-Fluoro-phenyl)-2′-methyl-|2,5′|bithiazolyl-4-carboxylic acid isopropylamide], the IC50 in test [1] (p38α biochemical assay) is ≤ 1000 nM. Moreover, the inhibition at 30 mg/kg in test [2] is > 15%.

For the compound `C#CCNC(=O)c1csc(-c2c(-c3ccc(F)cc3)n[nH]c2C2CCNCC2)n1` [Example 2027], the IC50 in test [1] (p38α kinase) was ≤ 1000 nM. The inhibition at 10 mg/kg in test [2] was > 15%.

`Cc1onc(-c2ccc(F)cc2F)c1-c1ccn(C(=O)NC(C)C)n1` [Example 17, 3-|3-(2,4-Difluoro-phenyl)-5-methyl-isoxazol-4-yl|-pyrazole-1-carboxylic acid isopropylamide]: in test [1] (p38α biochemical assay), the IC50 was ≤ 1000 nM. For the same compound, in test [2], the inhibition at 30 mg/kg was > 15%.

Consider `CCNC(=O)c1csc(-c2c(-c3ccc(F)cc3)n[nH]c2C2CCNCC2)n1` [Example 2026], for which the IC50 in test [1] (p38α kinase) is ≤ 1000 nM. Besides, the inhibition at 10 mg/kg in test [2] is > 15%.

As to `CONC(=O)c1csc(-c2c(-c3ccc(F)cc3)n[nH]c2C2CCNCC2)n1` [Example 71, 2-|3-(4-Fluoro-phenyl)-5-piperidin-4-yl-1H-pyrazol-4-yl|-thiazole-4-carboxylic acid methoxy-amide], the IC50 in test [1] (p38α biochemical assay) was ≤ 1000 nM. Further, the inhibition at 10 mg/kg in test [2] was ≤ 15%.

Regarding `CC(C)NC(=O)c1csc(-c2c(-c3ccc(F)cc3)noc2C2CCNCC2)n1` [Example 35, 2-|3-(4-Fluoro-phenyl)-5-piperidin-4-yl-isoxazol-4-yl|-thiazole-4-carboxylic acid isopropylamide], in test [1] (p38α biochemical assay), the IC50 was ≤ 1000 nM. For the same compound, the inhibition at 10 mg/kg in test [2] is ≤ 15%.

In the case of `Cc1nc(-c2ccc(F)cc2)c(-c2nc(C(=O)NC(C)C)cs2)o1` [Example 38], the IC50 in test [1] (p38α biochemical assay) is ≤ 1000 nM. Further, in test [2], the inhibition at 10 mg/kg was > 15% and the ED50 is ≤ 10 mg/kg.

As to `Cc1nc(-c2ccc(F)cc2)c(-c2nc(C(=O)NCC(C)c3ccccc3)cs2)s1` (centres unmarked) [Example 1772], the IC50 in test [1] (p38α kinase) was ≤ 1000 nM.

As to `CC(C)NC(=O)c1csc(-c2oc(CNC3CCC3)nc2-c2ccc(F)cc2)n1` [Example 1059], the IC50 in test [1] (p38α kinase) is > 1000 nM.

In the case of `CC(C)NC(=O)c1csc(-c2oc(CN3CCCCC3C)nc2-c2ccc(F)cc2)n1` (centres unmarked) [Example 1197], the IC50 in test [1] (p38α kinase) was > 1000 nM.

`Cc1cccc(CCC(=O)N2CCN(Cc3nc(-c4ccc(F)cc4)c(-c4nc(C(=O)NC(C)C)cs4)o3)CC2)c1` [Example 410]: the IC50 in test [1] (p38α biochemical assay) was ≤ 1000 nM.

On to `C#CCNC(=O)c1csc(-c2c(-c3ccc(F)cc3)n[nH]c2C2CCNCC2)n1` [Example 65, 2-|3-(4-Fluoro-phenyl)-5-piperidin-4-yl-1H-pyrazol-4-yl|-thiazole-4-carboxylic acid prop-2-ynylamide], for which the IC50 in test [1] (p38α biochemical assay) is ≤ 1000 nM.

On to `CC(C)NC(=O)c1csc(-c2c(-c3ccc(F)cc3)noc2CNC(=O)c2cccc(O)c2)n1` [Example 599], for which, in test [1] (p38α biochemical assay), the IC50 was > 1000 nM.

On to `CC(C)NC(=O)c1csc(-c2c(-c3ccc(F)cc3)noc2CNC(=O)c2cccc(Cl)c2[N+](=O)[O-])n1` [Example 745], for which the IC50 in test [1] (p38α biochemical assay) is > 1000 nM.

In the case of `COc1cccc(CCNC(=O)c2csc(-c3c(-c4ccc(F)cc4)n[nH]c3C3CCNCC3)n2)c1` [Example 2120], the IC50 in test [1] (p38α kinase) was > 1000 nM.

Regarding `Cc1nc(-c2ccc(F)cc2)c(-c2nc(C(=O)NC3CC(C)(C)NC(C)(C)C3)cs2)s1` [Example 1805], the IC50 in test [1] (p38α kinase) was > 1000 nM.

Regarding `Cc1nc(-c2ccc(F)cc2)c(-c2nc(C(=O)O)cs2)s1` [Example 1703], the IC50 in test [1] (p38α kinase) is > 1000 nM.
